In patent US20260274892A1, “MACROCYCLIC BROAD SPECTRUM ANTIBIOTICS” (RQx Pharmaceuticals, Inc., priority 2017, published 2026) one finds MIC data, which are given here for 14 molecules.

Each structure is given as a SMILES string.

The test system of the first assay is Escherichia coli ATCC 25922. Description: Minimum inhibitory concentration (MIC), CLSI broth micro-dilution, E. coli. The assay is classed as cell-based. Particulars: Escherichia coli, ATCC25922, 22 h, Table 6, cation adjusted Mueller Hinton Broth + 0.002% Tween-80, 35° C. In short, it runs like this:
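Antibacterial potency is measured as MIC by the CLSI broth dilution method. Bacteria at OD600 0.0005 in Tween-80-supplemented cation-adjusted Mueller Hinton broth face ten twofold compound dilutions for 22 h at 35° C.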
One may read the MIC as the least concentration at which growth counts as inhibited. Turning to `Cc1nc(N2CCC(OCCC(C)(C)C)CC2)nc(C)c1C(=O)N[C@@H](CCN)C(=O)N(C)[C@@H]1C(=O)N[C@@H](C)C(=O)N[C@H](C(=O)NCC#N)Cc2ccc(OCCN)c(c2)-c2cc1ccc2OCCN` (racemic) [Compound 527, rac-(8S,11S,14S)-3,18-bis(2-aminoethoxy)-N-(cyanomethyl)-11-methyl-14-[methyl-[rac-(2S)-4-amino-2-[[2-[4-(3,3-dimethylbutoxy)-1-piperidyl]-4,6-dimethyl-pyrimidine-5-carbonyl]amino]butanoyl]amino]-10,13-dioxo-9,12-diazatricyclo[13.3.1.12,6]icosa-1(18),2(20),3,5,15(19),16-hexaene-8-carboxamide], the minimum inhibitory concentration (MIC) came to 0.38 µM.
Still for that read-out and setting: as for `C[C@@H]1NC(=O)[C@@H](N(C)C(=O)[C@H](CCN)NC(=O)C2C3CC(c4ccc(C(C)(C)C)cc4)CC32)c2ccc(OCCN)c(c2)-c2cc(ccc2OCCN)C[C@@H](C(=O)NCC#N)NC1=O` (some centres unmarked) [Compound 488], the figure is 0.5 µM.
Still for that read-out and setting: with `Cc1nc(-c2ccc(N3[C@H](C)CCC[C@@H]3C)cc2)nc(C)c1C(=O)N[C@@H](CCN)C(=O)N(C)[C@@H]1C(=O)N[C@@H](C)C(=O)N[C@H](C(=O)NCC#N)Cc2ccc(OCCN)c(c2)-c2cc1ccc2OCCN` (racemic) [Compound 555, rac-(8S,11S,14S)-3,18-bis(2-aminoethoxy)-N-(cyanomethyl)-11-methyl-14-[methyl-[rac-(2S)-4-amino-2-[[4,6-dimethyl-2-[4-[rac-(2R,6S)-2,6-dimethyl-1-piperidyl]phenyl]pyrimidine-5-carbonyl]amino]butanoyl]amino]-10,13-dioxo-9,12-diazatricyclo[13.3.1.12,6]icosa-1(18),2(20),3,5,15(19),16-hexaene-8-carboxamide] the figure was 0.19 µM; with `Cc1nc(-c2ccc(OC3CCCCC3)cc2)nc(C)c1C(=O)N[C@@H](CCN)C(=O)N[C@@H]1C(=O)N[C@@H](C)C(=O)N[C@H](C(=O)NCC#N)Cc2ccc(OCCN)c(c2)-c2cc1ccc2OCCN` (racemic) [Compound 519, rac-(8S,11S,14S)-3,18-bis(2-aminoethoxy)-N-(cyanomethyl)-11-methyl-10,13-dioxo-14-[[rac-(2S)-4-amino-2-[[2-[4-(cyclohexoxy)phenyl]-4,6-dimethyl-pyrimidine-5-carbonyl]amino]butanoyl]amino]-9,12-diazatricyclo[13.3.1.12,6]icosa-1(18),2(20),3,5,15(19),16-hexaene-8-carboxamide], 0.13 µM.

The same assay, now with this note: Escherichia coli, ATCC25922, 22 h, Table 7, cation adjusted Mueller Hinton Broth + 0.002% Tween-80, 35° C.
On to `COc1c(OC[C@H](O)CN)cc2cc1-c1cc(ccc1OC[C@H](O)CN)C[C@@H](C(=O)NCC#N)NC(=O)[C@H](C)NC(=O)[C@H]2N(C)C(=O)[C@H](CCN)NC(=O)c1c(C)nc(-c2ccc(C(C)(C)C)cc2)nc1C` (racemic) [Compound 586, rac-(8S,11S,14S)-N-(cyanomethyl)-18-methoxy-11-methyl-14-[methyl-[rac-(2S)-4-amino-2-[[2-(4-tert-butylphenyl)-4,6-dimethyl-pyrimidine-5-carbonyl]amino]butanoyl]amino]-10,13-dioxo-3,17-bis[rac-(2R)-3-amino-2-hydroxy-propoxy]-9,12-diazatricyclo[13.3.1.12,6]icosa-1(18),2(20),3,5,15(19),16-hexaene-8-carboxamide], for which the MIC was 0.19 µM.
For `Cc1nc(-c2ccc(OC3CCCCC3)cc2)cc(N)c1C(=O)N[C@@H](CCN)C(=O)N(C)[C@@H]1C(=O)N[C@@H](C)C(=O)N[C@H](C(=O)NCC#N)Cc2ccc(OCCCN)c(c2)-c2cc1ccc2OCCCN` (racemic) [Compound 565, rac-(8S,11S,14S)-3,18-bis(3-aminopropoxy)-N-(cyanomethyl)-11-methyl-14-[methyl-[rac-(2S)-4-amino-2-[[4-amino-6-[4-(cyclohexoxy)phenyl]-2-methyl-pyridine-3-carbonyl]amino]butanoyl]amino]-10,13-dioxo-9,12-diazatricyclo[13.3.1.12,6]icosa-1(18),2(20),3,5,15(19),16-hexaene-8-carboxamide], the MIC was 0.13 µM.
Same read-out and setting: with `Cc1nc(-c2ccc(C(C)(C)C)cc2)nc(C)c1C(=O)N[C@@H](CCN)C(=O)N(C)[C@@H]1C(=O)N[C@@H](C)C(=O)N[C@H](C(=O)NCC#N)Cc2ccc(OC3CNC3)c(c2)-c2cc1ccc2O` (racemic) [Compound 605, rac-(8S,11S,14S)-3-(azetidin-3-yloxy)-N-(cyanomethyl)-18-hydroxy-11-methyl-14-[methyl-[rac-(2S)-4-amino-2-[[2-(4-tert-butylphenyl)-4,6-dimethyl-pyrimidine-5-carbonyl]amino]butanoyl]amino]-10,13-dioxo-9,12-diazatricyclo[13.3.1.12,6]icosa-1(18),2(20),3,5,15(19),16-hexaene-8-carboxamide] the figure was 0.75 µM; with `Cc1nc(-c2ccc(C(C)(C)C)cc2)nc(C)c1C(=O)N[C@@H](CNS(N)(=O)=O)C(=O)N(C)[C@@H]1C(=O)N[C@@H](C)C(=O)N[C@H](C(=O)NCC#N)Cc2ccc(OC[C@H](O)CN)c(c2)-c2cc1ccc2OC[C@H](O)CN` (racemic) [Compound 577, rac-(8S,11S,14S)-N-(cyanomethyl)-11-methyl-14-[methyl-[rac-(2S)-2-[[2-(4-tert-butylphenyl)-4,6-dimethyl-pyrimidine-5-carbonyl]amino]-3-(sulfamoylamino)propanoyl]amino]-10,13-dioxo-3,18-bis[rac-(2R)-3-amino-2-hydroxy-propoxy]-9,12-diazatricyclo[13.3.1.12,6]icosa-1(18),2(20),3,5,15(19),16-hexaene-8-carboxamide], 0.21 µM.
For the molecule `COc1c(OC[C@H](O)CN)cc2cc1-c1cc(cc(OC[C@H](O)CN)c1OC)[C@H](N(C)C(=O)[C@H](CCN)NC(=O)c1c(C)nc(-c3ccc(C(C)(C)C)cc3)nc1C)C(=O)N[C@@H](C)C(=O)N[C@H](C(=O)NCC#N)C2` (racemic) [Compound 591, rac-(8S,11S,14S)-N-(cyanomethyl)-3,18-dimethoxy-11-methyl-14-[methyl-[rac-(2S)-4-amino-2-[[2-(4-tert-butylphenyl)-4,6-dimethyl-pyrimidine-5-carbonyl]amino]butanoyl]amino]-10,13-dioxo-4,17-bis[rac-(2R)-3-amino-2-hydroxy-propoxy]-9,12-diazatricyclo[13.3.1.12,6]icosa-1(18),2(20),3,5,15(19),16-hexaene-8-carboxamide], the MIC was found to be 0.25 µM.
On the same count and under the same terms, with `Cc1nc(-c2ccc(C(C)(C)C)cc2)nc(C)c1C(=O)N[C@@H](CCN)C(=O)N(C)[C@@H]1C(=O)N[C@@H](C)C(=O)N[C@H](C(=O)NCC#N)Cc2ccc(OC(C)CN)c(c2)-c2cc1ccc2O` (mixture of isomers) [Compound 606, rac-(8S,11S,14S)-3-(2-amino-1-methyl-ethoxy)-N-(cyanomethyl)-18-hydroxy-11-methyl-14-[methyl-[rac-(2S)-4-amino-2-[[2-(4-tert-butylphenyl)-4,6-dimethyl-pyrimidine-5-carbonyl]amino]butanoyl]amino]-10,13-dioxo-9,12-diazatricyclo[13.3.1.12,6]icosa-1(18),2(20),3,5,15(19),16-hexaene-8-carboxamide] the figure was 0.5 µM.

The assay is the same for the next values; noted with them: Escherichia coli, ATCC25922, Table 6, cation adjusted Mueller Hinton Broth + 0.002% Tween-80, 35° C., 22 hours.
Turning to `Cc1cc(-c2ccc(C(C)(C)C)cc2)nc(C)c1C(=O)N[C@@H](CCN)C(=O)N(C)[C@@H]1C(=O)N[C@@H](C)C(=O)N[C@H](C(=O)NCC#N)Cc2ccc(OCCN)c(c2)-c2cc1ccc2OCCN` (racemic) [Compound 358, rac-(8S,11S,14S)-3,18-bis(2-aminoethoxy)-N-(cyanomethyl)-11-methyl-14-[methyl-[rac-(2S)-4-amino-2-[[6-(4-tert-butylphenyl)-2,4-dimethyl-pyridine-3-carbonyl]amino]butanoyl]amino]-10,13-dioxo-9,12-diazatricyclo[13.3.1.12,6]icosa-1(18),2(20),3,5,15(19),16-hexaene-8-carboxamide], the MIC came out at 0.2 µM.
Still for that read-out and setting: with `Cc1cc(C(C)(C)C)ccc1-c1ccc(C(=O)N[C@@H](CCN)C(=O)N(C)[C@@H]2C(=O)N[C@@H](C)C(=O)N[C@H](C(=O)NCC#N)Cc3ccc(OCCN)c(c3)-c3cc2ccc3OCCN)c(C)n1` (racemic) [Compound 210, rac-(8S,11S,14S)-3,18-bis(2-aminoethoxy)-N-(cyanomethyl)-11-methyl-14-[methyl-[rac-(2S)-4-amino-2-[[6-(4-tert-butyl-2-methyl-phenyl)-2-methyl-pyridine-3-carbonyl]amino]butanoyl]amino]-10,13-dioxo-9,12-diazatricyclo[13.3.1.12,6]icosa-1(18),2(20),3,5,15(19),16-hexaene-8-carboxamide] the figure was 0.35 µM.

Still in this assay, the particulars now being: Escherichia coli, ATCC25922, Table 7, cation adjusted Mueller Hinton Broth + 0.002% Tween-80, 35° C., 22 hours.
On to `COc1cc(O)c2cc1-c1cc(ccc1OCCN)[C@H](N(C)C(=O)[C@H](CCN)NC(=O)c1c(C)nc(-c3ccc(C(C)(C)C)cc3)nc1C)C(=O)N[C@@H](C)C(=O)N[C@H](C(=O)NCC#N)C2` (racemic) [Compound 625, rac-(8S,11S,14S)-18-(2-aminoethoxy)-N-(cyanomethyl)-5-hydroxy-3-methoxy-11-methyl-14-[methyl-[rac-(2S)-4-amino-2-[[2-(4-tert-butylphenyl)-4,6-dimethyl-pyrimidine-5-carbonyl]amino]butanoyl]amino]-10,13-dioxo-9,12-diazatricyclo[13.3.1.12,6]icosa-1(18),2(20),3,5,15(19),16-hexaene-8-carboxamide], for which the MIC is 0.38 µM.
Regarding `COc1cc(OCCN)c2cc1-c1cc(ccc1OCCN)[C@H](N(C)C(=O)[C@H](CNS(N)(=O)=O)NC(=O)c1c(C)nc(-c3ccc(C(C)(C)C)cc3)nc1C)C(=O)N[C@@H](C)C(=O)N[C@H](C(=O)NCC#N)C2` (racemic) [Compound 627, rac-(8S,11S,14S)-5,18-bis(2-aminoethoxy)-N-(cyanomethyl)-3-methoxy-11-methyl-14-[methyl-[rac-(2S)-2-[[2-(4-tert-butylphenyl)-4,6-dimethyl-pyrimidine-5-carbonyl]amino]-3-(sulfamoylamino)propanoyl]amino]-10,13-dioxo-9,12-diazatricyclo[13.3.1.12,6]icosa-1(18),2(20),3,5,15(19),16-hexaene-8-carboxamide], the MIC was determined as 0.5 µM.
